Laboratory results: US20180370927A1, “MICROBIOCIDAL OXADIAZOLE DERIVATIVES” (SYNGENTA PARTICIPATIONS AG, priority 2015, published 2018)

Key:
[1] = test system: Puccinia recondita f. Sp. Tritici; test: Puccinia recondita f. sp. tritici / wheat / leaf disc preventative (brown rust); format: in vivo; details: foliar, 200 ppm in the applied formulation, wheat leaf segments, preventative, assessed 7 to 9 days after application, read-out: disease control compared to untreated control leaf disks
How it was run: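 Wheat cv. Kanzler leaf segments on agar sprayed with formulated compound in water, inoculated with rust spores 1 day later. Incubated at 19° C, 75% rh, 12 h light/12 h dark; percent disease control versus untreated scored 7 to 9 days after application; tested at 200 ppm.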

[2] = test system: Glomerella lacenarium (Colletotrichum lacenarium); test: Glomerella lacenarium (Colletotrichum lacenarium) liquid culture / cucumber / preventative (anthracnose); format: cell-based; details: 20 ppm in the applied formulation, liquid culture in PDB, 24° C., 3 to 4 days after application, read-out: disease control (inhibition of growth, photometric) compared to untreated control
How it was run: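 Cryostored conidia in potato dextrose broth added to DMSO compound solution in microtiter plates, incubated at 24° C. Growth inhibition read photometrically 3 to 4 days after application, as percent control versus untreated check; compounds tested at 20 ppm.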

Phakopsora pachyrhizi = Phakopsora pachyrhizi / soybean / leaf disc preventative (Asian soybean rust); format: in vivo; details: foliar, 200 ppm in the applied formulation, soybean leaf disks, assessed 12 to 14 days after application, read-out: disease control compared to untreated control leaf disks
Protocol: Leaf disks or leaf segments of various plant species are cut from plants grown in a greenhouse. The cut leaf disks or segments are placed in multiwell plates (24-well format) onto water agar. The leaf disks are sprayed with a test solution before (preventative) or after (curative) inoculation. Compounds to be tested are prepared as DMSO solutions (max. 10 mg/mL) which are diluted to the appropriate concentration with 0.025% Tween20 just before spraying. The inoculated leaf disks or segments are incubated under defined conditions (temperature, relative humidity, light, etc.) according to the respective test system. A single evaluation of disease level is carried out 3 to 14 days after inoculation, depending on the pathosystem. Percent disease control relative to the untreated check leaf disks or segments is then calculated.
Example 3: Fungicidal Activity Against Phakopsora pachyrhizi/Soybean/Leaf Disc Preventative (Asian Soybean Rust)
Soybean leaf disks are placed on water agar in multiwell plates (24-well format) and sprayed with the formulated test compound diluted in water. One day after application leaf discs are inoculated by spraying a spore suspension on the lower leaf surface. After an incubation period in a climate cabinet of 24-36 hours in darkness at 20° C. and 75% relative humidity leaf disc are kept at 20° C. with 12 hours light/day and 75% relative humidity. The activity of a compound is assessed as percent disease control compared to untreated when an appropriate level of disease damage appears in untreated check leaf disks (12 to 14 days after application).
The following compounds at 200 ppm in the applied formulation give at least 80% disease control in this test when compared to untreated control leaf disks under the same conditions, which show extensive disease development.

[3] = test system: Puccinia recondita f. Sp. Tritici; test: Puccinia recondita f. sp. tritici / wheat / leaf disc curative (brown rust); format: in vivo; details: foliar, 200 ppm in the applied formulation, wheat leaf segments, curative (applied 1 day after inoculation), assessed 6 to 8 days after application, read-out: disease control compared to untreated control leaf disks
How it was run: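 Wheat cv. Kanzler leaf segments on agar were inoculated with spores, kept dark at 19° C, 75% RH, then sprayed with diluted formulated compound 1 day after inoculation (curative). Incubation continued at 19° C, 75% RH, 12 h light/12 h dark, with percent disease control versus untreated scored 6 to 8 days after application.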

CCN(Cc1ccc(-c2noc(C(F)(F)F)n2)cc1)C(=O)C(=O)N(C)C [Compound 4.27, N′-ethyl-N,N-dimethyl-N′-[[4-[5-(trifluoromethyl)-1,2,4-oxadiazol-3-yl]phenyl]methyl] oxamide]
≥ 80%: pest or weed control at 200 ppm [1] | inhibition at 20 ppm [2] | pest or weed control at 200 ppm (Phakopsora pachyrhizi) | pest or weed control at 200 ppm [3]

CCCC(=O)C(=O)N(CC)Cc1ccc(-c2noc(C(F)(F)F)n2)cc1 [Compound 1.19, N-ethyl-2-oxo-N-[[4-[5-(trifluoromethyl)-1,2,4-oxadiazol-3-yl]phenyl]methyl]pentanamide]
≥ 80%: pest or weed control at 200 ppm [1] | inhibition at 20 ppm [2] | pest or weed control at 200 ppm (Phakopsora pachyrhizi) | pest or weed control at 200 ppm [3]

O=C(NCc1c(F)cc(-c2noc(C(F)(F)F)n2)cc1F)C(=O)c1ccco1 [Compound 1.88, N-[[2,6-difluoro-4-[5-(trifluoromethyl)-1,2,4-oxadiazol-3-yl]phenyl]methyl]-2-(2-furyl)-2-oxo-acetamide]
≥ 80%: pest or weed control at 200 ppm [1] | inhibition at 20 ppm [2] | pest or weed control at 200 ppm (Phakopsora pachyrhizi) | pest or weed control at 200 ppm [3]

CCN(C)C(=O)C(=O)N(Cc1ccc(-c2noc(C(F)(F)F)n2)cc1)OC [Compound 4.73, N-ethyl-N′-methoxy-N-methyl-N′-[[4-[5-(trifluoromethyl)-1,2,4-oxadiazol-3-yl]phenyl]methyl] oxamide]
≥ 80%: pest or weed control at 200 ppm [1] | inhibition at 20 ppm [2] | pest or weed control at 200 ppm (Phakopsora pachyrhizi) | pest or weed control at 200 ppm [3]

CCON(Cc1ccc(-c2noc(C(F)(F)F)n2)cc1)C(=O)C(N)=O [Compound 4.86, N′-ethoxy-N′-[[4-[5-(trifluoromethyl)-1,2,4-oxadiazol-3-yl]phenyl]methyl] oxarnide]
≥ 80%: pest or weed control at 200 ppm [1] | inhibition at 20 ppm [2] | pest or weed control at 200 ppm (Phakopsora pachyrhizi) | pest or weed control at 200 ppm [3]

CCC(=O)C(=O)NCc1ccc(-c2noc(C(F)(F)F)n2)c(F)c1 [Compound 1.78, N-[[3-fluoro-4-[5-(trifluoromethyl)-1,2,4-oxadiazol-3-yl]phenyl]methyl]-2-oxo-butanamide]
≥ 80%: pest or weed control at 200 ppm [1] | inhibition at 20 ppm [2] | pest or weed control at 200 ppm (Phakopsora pachyrhizi) | pest or weed control at 200 ppm [3]

CCN(Cc1ccc(-c2noc(C(F)(F)F)n2)cc1)C(=O)C(=O)C(C)C [Compound 1.96, N-ethyl-3-methyl-2-oxo-N-[[4-[5-(trifluoromethyl)-1,2,4-oxadiazol-3-yl]phenyl]methyl]butanamide]
≥ 80%: pest or weed control at 200 ppm [1] | inhibition at 20 ppm [2] | pest or weed control at 200 ppm (Phakopsora pachyrhizi) | pest or weed control at 200 ppm [3]

O=C(NCc1ccc(-c2noc(C(F)(F)F)n2)cc1)C(=O)N1CCOCC1 [Compound 4.59, 2-morpholino-2-oxo-N-[[4-[5-(trifluoromethyl)-1,2,4-oxadiazol-3-yl]phenyl]methyl] acetamide]
≥ 80%: pest or weed control at 200 ppm [1] | inhibition at 20 ppm [2] | pest or weed control at 200 ppm (Phakopsora pachyrhizi) | pest or weed control at 200 ppm [3]

C=CCN(Cc1ccc(-c2noc(C(F)(F)F)n2)cc1)C(=O)C(=O)CCC [Compound 1.17, N-allyl-2-oxo-N-[[4-[5-(trifluoromethyl)-1,2,4-oxadiazol-3-yl]phenyl]methyl]pentanamide]
≥ 80%: pest or weed control at 200 ppm [1] | inhibition at 20 ppm [2] | pest or weed control at 200 ppm (Phakopsora pachyrhizi) | pest or weed control at 200 ppm [3]

CCC(=O)C(=O)N(Cc1ccc(-c2noc(C(F)(F)F)n2)cc1)C(C)C [Compound 1.32]
≥ 80%: pest or weed control at 200 ppm [1] | inhibition at 20 ppm [2] | pest or weed control at 200 ppm (Phakopsora pachyrhizi) | pest or weed control at 200 ppm [3]

CON(Cc1ccc(-c2noc(C(F)(F)F)n2)cc1)C(=O)C(=O)c1ccccc1 [Compound 1.76, N-methoxy-2-oxo-phenyl-N-[[4-[5-(trifluoromethyl)-1,2,4-oxadiazol-3-yl]phenyl]methyl]acetamide]
≥ 80%: pest or weed control at 200 ppm [1] | inhibition at 20 ppm [2] | pest or weed control at 200 ppm (Phakopsora pachyrhizi) | pest or weed control at 200 ppm [3]

C#CCN(Cc1ccc(-c2noc(C(F)(F)F)n2)cc1)C(=O)C(=O)CCC [Compound 1.5, 2-oxo-N-prop-2-ynyl-N-[[4-[5-(trifluoromethyl)-1,2,4-oxadiazol-3-yl]phenyl]methyl]pentanamide]
≥ 80%: pest or weed control at 200 ppm [1] | inhibition at 20 ppm [2] | pest or weed control at 200 ppm (Phakopsora pachyrhizi) | pest or weed control at 200 ppm [3]

CON(C)C(=O)C(=O)N(C)Cc1ccc(-c2noc(C(F)(F)F)n2)cc1 [Compound 4.104, N′-methoxy-N,N′-dimethyl-N-[[4-[5-- (trifluoromethyl)-1,2,4-oxadiazol-3-yl]phenyl]methyl] oxamide]
≥ 80%: pest or weed control at 200 ppm [1] | inhibition at 20 ppm [2] | pest or weed control at 200 ppm (Phakopsora pachyrhizi) | pest or weed control at 200 ppm [3]

CON(Cc1ccc(-c2noc(C(F)(F)F)n2)cc1)C(=O)C(C)=O [Compound 1.36, N-methoxy-2-oxo-N-[[4-[5-(trifluoromethyl)-1,2,4-oxadiazol-3-yl]phenyl]methyl]propanamide]
≥ 80%: pest or weed control at 200 ppm [1] | inhibition at 20 ppm [2] | pest or weed control at 200 ppm (Phakopsora pachyrhizi) | pest or weed control at 200 ppm [3]

CCONC(=O)C(=O)NCc1ccc(-c2noc(C(F)(F)F)n2)cc1 [Compound 4.55, N′-ethoxy-N-[[4-[5-(trifluoromethyl)-1,2,4-oxadiazol-3-yl]phenyl]methyl] oxamide]
≥ 80%: pest or weed control at 200 ppm [1] | inhibition at 20 ppm [2] | pest or weed control at 200 ppm (Phakopsora pachyrhizi) | pest or weed control at 200 ppm [3]

O=C(NCc1ccc(-c2noc(C(F)(F)F)n2)cc1F)C(=O)c1cccs1 [Compound 1.39, N-[[2-fluoro-4-[5-(trifluoromethyl)-1,2,4-oxadiazol-3-yl]phenyl]methyl]-2-oxo-2-(2-thienyl)acetamide]
≥ 80%: pest or weed control at 200 ppm [1] | inhibition at 20 ppm [2] | pest or weed control at 200 ppm (Phakopsora pachyrhizi) | pest or weed control at 200 ppm [3]

CCC(=O)C(=O)NCc1ccc(-c2noc(C(F)(F)F)n2)cc1F [Compound 1.41, N-[[2-fluoro-4-[5-(trifluoromethyl)-1,2,4-oxadiazol-3-yl]phenyl]methyl]-2-oxo-butanamide]
≥ 80%: pest or weed control at 200 ppm [1] | inhibition at 20 ppm [2] | pest or weed control at 200 ppm (Phakopsora pachyrhizi) | pest or weed control at 200 ppm [3]

O=C(NCc1ccc(-c2noc(C(F)(F)F)n2)cc1)C(=O)c1ccco1 [Compound 1.82, 2-(2-furyl)-2-oxo-N-[[4-[5-(trifluoromethyl)-1,2,4-oxadiazol-3-yl]phenyl]methyl]acetamide]
≥ 80%: pest or weed control at 200 ppm [1] | inhibition at 20 ppm [2] | pest or weed control at 200 ppm (Phakopsora pachyrhizi) | pest or weed control at 200 ppm [3]

CCCN(Cc1ccc(-c2noc(C(F)(F)F)n2)cc1)C(=O)C(N)=O [Compound 4.88, N′-propyl-N′-[[4-[5-(trifluoromethyl)-1,2,4-oxadiazol-3-yl]phenyl]methyl] oxamide]
≥ 80%: pest or weed control at 200 ppm [1] | inhibition at 20 ppm [2] | pest or weed control at 200 ppm (Phakopsora pachyrhizi) | pest or weed control at 200 ppm [3]
